Test results reported in patent publication US10603701B2, “Bioremediation of 1,4-dioxane and chlorinated aliphatic hydrocarbons by propanotrophic bacteria” (New Jersey Institute of Technology, priority 2018, dated 2020).

How the values were obtained:
Azoarcus sp. DD4 [1] = test: Inhibition of 1,1-DCE on dioxane degradation by DD4 resting cells; format: cell-based; conditions: dioxane 20.9±0.3 mg/L and 1,1-DCE 5.0±0.4 mg/L, 24 hr
Experimental: Inhibition of 1,1-DCE on dioxane degradation by Azoarcus sp. DD4. Though DD4 can degrade both dioxane and 1,1-DCE, the effect(s) of 1,1-DCE on dioxane biodegradation was investigated. DD4 cells were harvested at the exponential growth phase and washed by NMS medium three times. Three treatments were prepared with the resting cells by the exposure of dioxane (19.7±1.2 mg/L), 1,1-DCE (5.5±0.1 mg/L), and both dioxane (20.9±0.3 mg/L) and 1,1-DCE (5.0±0.4 mg/L). Concentrations of 1,1-DCE and dioxane were monitored using GC at selected time intervals over 24 hr. Abiotic controls were treated identically. All experiments were performed in duplicate vials. […] Thus, it is very plausible that DD4 can resume its capability of degrading dioxane once 1,1-DCE is depleted by DD4.

Azoarcus sp. DD4 [2] = test: Biodegradation of concurrent dioxane and 1,1-DCE by DD4 in microcosms; format: cell-based; conditions: for effect of presence on utilization of 1-propanol and proliferation of DD4: 1-propanol as primary substrate
Experimental: Biodegradation of concurrent dioxane and 1,1-DCE by Azoarcus sp. DD4. To evaluate the performance of DD4 in removing dioxane and 1,1-DCE when both compounds are concurrently present, microcosms were prepared with DD4 inoculum in NMS medium and dosed with dioxane and 1,1-DCE. Two primary substrates were used, including propane and 1-propanol.

[3] = tested on: Psuedonocardia dioxanivorans CB1190; conditions: previous studies; cited from earlier work
Azoarcus sp. DD4 [4] = test: Propane and dioxane degradation by DD4 with or without ATU; format: cell-based; conditions: propane as primary substrate; dioxane degradation thus prolonged
Experimental: Allylthiourea (ATU) was reported to inhibit the particulate MOs involved in nitrification and alkane degradation in various bacteria. To exploit the effects ofprm-deletion on the propane and dioxane degradation and further to distinguish the soluble versus particulate MO category the DD4 dioxane degrader belongs to, the wild-type and prm-deleted DD4 strains were cultured with and without the presence of ATU using propane as a primary substrate to cometabolize dioxane. Duplicate abiotic controls were prepared in parallel. The propane and dioxane depletion were monitored over time by GC analysis. Now referring to FIGS. 11a and 11b, prmADBC is only partially correlated with the propane degradation but not associated with the dioxane cometabolism.

Azoarcus sp. DD4 [5] = conditions: propane as substrate
Experimental: DD4's adaptability to pH, salinity and temperature. To identify its optimum growth conditions, DD4 was cultured with propane as the substrate under different pHs, temperatures, and salinities. The pHs of NMS medium were adjusted to 4.0, 5.0, 6.0, 7.0, 8.0, 9.0 and 10.0 with appropriate amount of 1 M HCl or 1 M NaOH. The NMS mediums were cultured under 10° C., 15° C., 20° C., 25° C., 30° C., 35° C., and 40° C. The salinities of NMS medium were adjusted to 0%, 0.5%, 1.0%, 1.5%, 2.0%, 2.5%, 3.0%, and 3.5% (w/v) with NaCl. 6 mL of propane (equivalent to 6% of the head space volume) was injected into the sealed bottles in all these assays. DD4 was inoculated at the initial concentration of 0.05 measured as OD600 and cultured under 30° C., 150 rpm for 72 h while shaking. The optical density (OD) values of bacterial suspensions were determined with spectrophotometer under 600 nm.

Mycobacterium sp. DT1 = test: Concurrent biodegradation of dioxane and TCE by DT1 in simulated microcosms; format: cell-based
Experimental: Concurrent biodegradation of dioxane and TCE by Mycobacterium sp. DT1. To evaluate the performance of DT1 in the removal of dioxane and TCE when both compounds are concurrently present, simulated microcosms were prepared with DT1 inoculum in BSM medium and dosed with dioxane and TCE. Propane was used as the primary substrate. […] After a short lag time (1 d), all the substrates, i.e. propane, dioxane, and TCE, were degraded synchronically. At the end of day 2, the initial 71.1, 20.2, and 2.15 mg/L of propane, dioxane, and TCE were degraded to 25.8, 11.3, and 1.59 mg/L, respectively. TCE was degraded to below the MDL of the GC-FID methods employed (i.e., 0.01 mg/L), and 85% of dioxane was removed from the simulated microcosm after 4 days incubation.

Azoarcus sp. DD4 [6] = test: Inhibition of dioxane, 1,1-DCE and propane degradation by acetylene (DD4 resting cells); format: cell-based; conditions: resting cells pre-incubated with acetylene 10% headspace volume, 20 minutes
Experimental: Inhibition of dioxane, 1,1-DCE, and propane degradation by acetylene. Acetylene is an irreversible suicide substrate that inactivates bacterial monooxygenases (MOs). Prior S. and Dalton H, 1985. Acetylene as a suicide substrate and active site probe for methane monooxygenase from Methylococcus capsulatus (Bath). FEMS Microbiology Letters. 29, 105-109. […] After being washed with NMS three times, resting cells were pre-incubated with acetylene (10% headspace volume) for 20 minutes prior to the amendment of dioxane, 1,1-DCE, or propane. The effect of the inhibitor acetylene was studied by monitoring the depletion of dioxane, 1,1-DCE, and propane over time in the presence or absence of acetylene. Duplicate abiotic controls were prepared in parallel. The propane and dioxane depletion were monitored over time by GC analysis.

SMILES: C=C(Cl)Cl [1,1-DCE, 1,1-dichloroethylene]
- effect of presence on dioxane degradation by DD4 resting cells (Azoarcus sp. DD4 [1]): greatly inhibited
- effect of presence on utilization of 1-propanol and proliferation of DD4 (Azoarcus sp. DD4 [2]): did not inhibit
- effect of presence on degradation of dioxane and consumption of propane for growth (Azoarcus sp. DD4 [2]; propane as primary substrate, NMS microcosm): significantly inhibited
- effect of exposure on dioxane degradation by CB1190 [3]: significantly prohibit

SMILES: C=CCNC(N)=S [ATU, Allylthiourea]
- effect on propane consumption (Azoarcus sp. DD4 [4]): partially inhibit

SMILES: [Cl-].[Na+] [NaCl]
- optimal growth parameter, NaCl (Azoarcus sp. DD4 [5]; 72 h, OD600, w/v): 0-1%
- NaCl concentration under which DD4 could survive and maintain growth and cometabolic activity toward dioxane (Azoarcus sp. DD4 [5]; w/v): 0.0-3.0%

SMILES: ClC=C(Cl)Cl [TCE, trichloroethene]
- effect of presence on degradation of dioxane or consumption of propane for growth (Mycobacterium sp. DT1; DT1, BSM, propane as primary substrate): no significant inhibition

SMILES: C#C [acetylene]
- effect of exposure on degradation of propane, 1,1-DCE and dioxane (Azoarcus sp. DD4 [6]): completely prohibited

SMILES: C1COCCO1 [dioxane, 1,4-dioxane]
- effect on 1,1-DCE degradation by DD4 resting cells (Azoarcus sp. DD4 [1]): no inhibitory effects
- effect of presence on utilization of 1-propanol and proliferation of DD4 (Azoarcus sp. DD4 [2]): did not inhibit
- dioxane removed after 4 days incubation (Mycobacterium sp. DT1; initial 20.2 mg/L): 85%
